This experiment concerns substance P induced relaxation of the pig coronary arteries. Put plainly: Antagonism of substance P induced relaxation of the pig coronary arteries. Type of experiment: cell-based. Conditions: Sus scrofa, 0.5 h, response to 10^-9 M substance P, 30 min incubation; for inhibition at 0.003 µM: test compound 3 × 10^-9; for inhibition at 0.03 µM: test compound 3 × 10^-8. On the procedure:
Antagonism of substance P induced relaxation of the pig coronary arteries
Segments of coronary arteries taken from pigs (killed by injection of an overdose of sodium pentobarbital) were inverted and mounted for recording of isometric tension in organ baths (volume 20 ml) with the endothelium at the outside. The preparations were bathed in Krebs - Henseleit solution. The solution was kept at 37° C. and gassed with a mixture of O2 /CO2 (95/5). After stabilisation of the preparations, prostaglandin F2α (10^-5 M) was administered to induce a contraction. This was repeated until contractile responses became stable. Then prostaglandin F2α was again administered and substance P (3×10^-10 M and 10^-9 M cumulatively) was added. […] After washing away the agonists, a known concentration of a compound of formula (I) was added. After an incubation period of 30 minutes, prostaglandin F2α (10^-5 M) and the same concentrations of substance P as described above were again administered in the presence of the compound to be tested.

`Cc1ncc(Cn2c(NC3CCN([C@@H]4CCN(C(=O)Nc5cc(C(F)(F)F)cc(C(F)(F)F)c5)[C@@H](Cc5ccccc5)C4)CC3)nc3ccccc32)o1` (racemic) [Compound 52, (±)-trans-N-[3,5-bis(trifluoromethyl)phenyl]-4-[4-[[1-[(2-methyl-5-oxazolyl)methyl]-1H-benzimidazol-2-yl]amino]-1-piperidinyl]-2-(phenylmethyl)-1-piperidinecarboxamide] gave an inhibition at 0.003 µM of 6.3%.
The molecule `CCOCCn1c(NC2CCN([C@H]3CCN(C(=O)c4cc(C)cc(C)c4)[C@@H](Cc4ccccc4)C3)CC2)nc2ccccc21` (relative stereo) [Compound 1] displayed an inhibition at 0.03 µM of 15%.
Molecule `CCOCCn1c(NC2CCN([C@@H]3CCN(C(=O)c4cc(C)cc(C)c4)[C@@H](Cc4ccccc4)C3)CC2)nc2ccccc21` (relative stereo) [Compound 2] had an inhibition at 0.03 µM of 41.1%.
As for `Cc1cc(C)cc(C(=O)N2CC[C@H](N3CCC(Nc4nc5ccccc5n4Cc4ccccc4F)CC3)C[C@@H]2Cc2ccccc2)c1` (relative stereo) [Compound 3], for the setting “test compound 3 × 10^-7”, the inhibition at 0.3 µM was determined as 35.2%.
As to `Cc1cc(C)cc(C(=O)N2CC[C@@H](N3CCC(Nc4nc5ccccc5n4Cc4ccccc4F)CC3)C[C@@H]2Cc2ccccc2)c1` (relative stereo) [Compound 4], the inhibition at 0.03 µM was 10.2%.
Same read-out and setting: for `CCOCCn1c(NC2CCN([C@H]3CCN(C(=O)c4cc(C(F)(F)F)cc(C(F)(F)F)c4)[C@@H](Cc4ccccc4)C3)CC2)nc2ccccc21` (relative stereo) [Compound 5] the value was 80.7%.
Same read-out and setting: for `CCOCCn1c(NC2CCN([C@@H]3CCN(C(=O)c4cc(C(F)(F)F)cc(C(F)(F)F)c4)[C@@H](Cc4ccccc4)C3)CC2)nc2ccccc21` (relative stereo) [Compound 6, (±)-trans-1-[1,3-bis(trifluoromethyl)-benzoyl]-4-[4-[[1-(2-ethoxyethyl)-1H-benzimidazol-2-yl]amino]-1-piperidinyl]-2-(phenylmethyl)piperidine] the value was 85.3%.
The same measure, in the same setting: for `Cc1cc(C)cc(C(=O)N2CC[C@H](N3CCC(Nc4nc5ccccc5n4Cc4cccs4)CC3)C[C@@H]2Cc2ccccc2)c1` (relative stereo) [Compound 7] the value was 54%.
Under “test compound 1 × 10^-8”, `Cc1cc(C)cc(C(=O)N2CC[C@@H](N3CCC(Nc4nc5ccccc5n4Cc4cccs4)CC3)C[C@@H]2Cc2ccccc2)c1` (relative stereo) [Compound 8] returned an inhibition at 0.01 µM of 14.7%.
Consider `Cc1cc(C)cc(C(=O)N2CC[C@H](N3CCC(Nc4nc5ccccc5n4Cc4cscn4)CC3)C[C@@H]2Cc2ccccc2)c1` (relative stereo) [Compound 9], for which the inhibition at 0.03 µM stood at 78.1%.
The same measure, in the same setting: for `Cc1cc(C)cc(C(=O)N2CC[C@@H](N3CCC(Nc4nc5ccccc5n4Cc4cscn4)CC3)C[C@@H]2Cc2ccccc2)c1` (relative stereo) [Compound 10] the value was 89.3%.
Take `Cc1cc(C)cc(C(=O)N2CC[C@H](N3CCC(Cc4nc5ccccc5n4Cc4csc(C)n4)CC3)C[C@@H]2Cc2ccccc2)c1` (relative stereo) [Compound 11]: the inhibition at 0.03 µM came to 81.1%.
Same read-out and setting: for `Cc1cc(C)cc(C(=O)N2CC[C@@H](N3CCC(Cc4nc5ccccc5n4Cc4csc(C)n4)CC3)C[C@@H]2Cc2ccccc2)c1` (relative stereo) [Compound 12] the value was 92.3%; for `Cc1ncc(Cn2c(NC3CCN([C@H]4CCN(C(=O)c5cc(C(F)(F)F)cc(C(F)(F)F)c5)[C@@H](Cc5ccccc5)C4)CC3)nc3ccccc32)o1` (relative stereo) [Compound 15], 84.6%; for `Cc1ncc(Cn2c(NC3CCN([C@@H]4CCN(C(=O)c5cc(C(F)(F)F)cc(C(F)(F)F)c5)[C@@H](Cc5ccccc5)C4)CC3)nc3ccccc32)o1` (relative stereo) [Compound 16], 88.8%.
Same read-out and setting: for `Cc1nc(C)c(Cn2c(NC3CCN([C@H]4CCN(C(=O)c5cc(C(F)(F)F)cc(C(F)(F)F)c5)[C@@H](Cc5ccccc5)C4)CC3)nc3cccnc32)o1` (relative stereo) [Compound 17] the value was 94.5%.
On to `Cc1nc(C)c(Cn2c(NC3CCN([C@@H]4CCN(C(=O)c5cc(C(F)(F)F)cc(C(F)(F)F)c5)[C@@H](Cc5ccccc5)C4)CC3)nc3cccnc32)o1` (relative stereo) [Compound 18], for which the inhibition at 0.003 µM stood at 73.7%.
The same measure, in the same setting: for `Cc1ccc(Cn2c(NC3CCN([C@H]4CCN(C(=O)c5cc(C(F)(F)F)cc(C(F)(F)F)c5)[C@@H](Cc5ccccc5)C4)CC3)nc3cccnc32)o1` (relative stereo) [Compound 19] the value was 79.5%; for `Cc1ccc(Cn2c(NC3CCN([C@@H]4CCN(C(=O)c5cc(C(F)(F)F)cc(C(F)(F)F)c5)[C@@H](Cc5ccccc5)C4)CC3)nc3cccnc32)o1` (relative stereo) [Compound 20], 68.9%.
Consider `O=C(c1cc(C(F)(F)F)cc(C(F)(F)F)c1)N1CC[C@H](N2CCC(Oc3nc4ccccc4n3Cc3ccc(F)cc3)CC2)C[C@@H]1Cc1ccccc1` (relative stereo) [Compound 24], for which the inhibition at 0.03 µM amounted to 100%.
`O=C(c1cc(C(F)(F)F)cc(C(F)(F)F)c1)N1CC[C@@H](N2CCC(Oc3nc4ccccc4n3Cc3ccc(F)cc3)CC2)C[C@@H]1Cc1ccccc1` (relative stereo) [Compound 25] registered an inhibition at 0.03 µM of 100%.
Still for that read-out and setting: for `O=C(c1cc(C(F)(F)F)cc(C(F)(F)F)c1)N1CC[C@H](N2CCC(Nc3nc4ccccc4n3Cc3ccc(F)cc3)CC2)C[C@@H]1Cc1ccccc1` (relative stereo) [Compound 26] the value was 82.2%; for `O=C(c1cc(C(F)(F)F)cc(C(F)(F)F)c1)N1CC[C@@H](N2CCC(Nc3nc4ccccc4n3Cc3ccc(F)cc3)CC2)C[C@@H]1Cc1ccccc1` (relative stereo) [Compound 27], 92.8%.
`Cc1ccc(Cn2c(NC3CCN([C@@H]4CCN(C(=O)c5cc(C(F)(F)F)cc(C(F)(F)F)c5)[C@H](Cc5ccccc5)C4)CC3)nc3ccccc32)o1` (relative stereo) [Compound 28] registered an inhibition at 0.03 µM of 100%.
Same read-out and setting: for `Cc1ccc(Cn2c(NC3CCN([C@@H]4CCN(C(=O)c5cc(C(F)(F)F)cc(C(F)(F)F)c5)[C@@H](Cc5ccccc5)C4)CC3)nc3ccccc32)o1` (relative stereo) [Compound 29] the value was 65.6%.
The molecule `Cc1cc(C)cc(C(=O)N2CC[C@@H](N3CCC(Nc4nc5ccccc5n4Cc4ccc(C)o4)CC3)C[C@@H]2Cc2ccccc2)c1` (relative stereo) [Compound 32] had an inhibition at 0.003 µM of 20.1%.
Same read-out and setting: for `O=C(c1cc(C(F)(F)F)cc(C(F)(F)F)c1)N1CC[C@@H](N2CCC(Cc3nc4ccccc4n3Cc3ccc(F)cc3)CC2)C[C@@H]1Cc1ccccc1` (relative stereo) [Compound 33] the value was 56.8%.
Turning to `O=C(c1cc(C(F)(F)F)cc(C(F)(F)F)c1)N1CC[C@@H](N2CCC(Sc3nc4ccccc4n3Cc3ccc(F)cc3)CC2)C[C@@H]1Cc1ccccc1` (relative stereo) [Compound 35], the inhibition at 0.03 µM amounted to 88.5%.
In turn, `Cc1ncc(Cn2c(OC3CCN([C@@H]4CCN(C(=O)c5cc(C(F)(F)F)cc(C(F)(F)F)c5)[C@H](Cc5ccccc5)C4)CC3)nc3ccccc32)o1` (relative stereo) [Compound 36] displayed an inhibition at 0.003 µM of 66%.
Regarding `Cc1ncc(Cn2c(OC3CCN([C@@H]4CCN(C(=O)c5cc(C(F)(F)F)cc(C(F)(F)F)c5)[C@@H](Cc5ccccc5)C4)CC3)nc3ccccc32)o1` (relative stereo) [Compound 37], the inhibition at 0.003 µM was found to be 70.5%.
Turning to `O=C(c1cc(C(F)(F)F)cc(C(F)(F)F)c1)N1CC[C@@H](N2CCC(Cc3nc4ccccc4n3Cc3ccc(F)cc3)CC2)C[C@H]1Cc1ccccc1` (relative stereo) [Compound 40], at 0.03 µM the inhibition was 93.3%.
In turn, `Cc1ccc(Cn2c(CC3CCN([C@@H]4CCN(C(=O)c5cc(C(F)(F)F)cc(C(F)(F)F)c5)[C@@H](Cc5ccccc5)C4)CC3)nc3ccccc32)o1` (relative stereo) [Compound 41] gave an inhibition at 0.003 µM of 82.6%.
`Cc1ccc(Cn2c(CC3CCN([C@@H]4CCN(C(=O)c5cc(C(F)(F)F)cc(C(F)(F)F)c5)[C@H](Cc5ccccc5)C4)CC3)nc3ccccc32)o1` (relative stereo) [Compound 42] showed an inhibition at 0.03 µM of 96.9%.
On the same count and under the same terms, for `O=C(c1cc(C(F)(F)F)cc(C(F)(F)F)c1)N1CC[C@@H](N2CCC(Nc3nc4ccccc4n3Cc3ccc(CO)o3)CC2)C[C@@H]1Cc1ccccc1` (relative stereo) [Compound 43] the value was 85.2%.
Molecule `O=C(c1cc(C(F)(F)F)cc(C(F)(F)F)c1)N1CC[C@@H](N2CCC(Nc3nc4ccccc4n3Cc3ccc(CO)o3)CC2)C[C@H]1Cc1ccccc1` (relative stereo) [Compound 44] displayed an inhibition at 0.03 µM of 91.5%.
As for `Cc1ncc(Cn2c(N[C@@H]3CCN(C(=O)c4ccc5ccccc5c4)[C@@H](Cc4ccccc4)C3)nc3ccccc32)o1` (relative stereo) [Compound 45], at 0.003 µM the inhibition was 13.1%.
On the same count and under the same terms, for `Cc1ncc(Cn2c(N[C@@H]3CCN(C(=O)c4ccco4)[C@@H](Cc4ccccc4)C3)nc3ccccc32)o1` (relative stereo) [Compound 46] the value was 17.6%; for `Cc1ncc(Cn2c(NC3CCN([C@@H]4CCN(C(=O)c5cc(Cl)cc(Cl)c5)[C@@H](Cc5ccccc5)C4)CC3)nc3ccccc32)o1` (relative stereo) [Compound 55], 28.1%.

As usually defined, the inhibition is the change of the read-out against control, counted positive when it falls.

For the origin of these results see patent publication US6110939A, “(Benzimidazolyl- and imidazopyridinyl) containing 1-(1,2-disubstituted piperidinyl) derivatives” (Janssen Pharmaceutica N.V., priority 1995, dated 2000).
